pIC50, pKd: −log10 of the molar value.
What was measured:
mTORC1 = target: T1, mTORC1 (Homo sapiens, UniProt P42345+P62942); assay: mTORC1 inhibition in PC-3 cells, AlphaLISA of p70S6K pT389 levels; assay type: cell-based; settings: mTORC1 as measured by inhibition of p70S6K pT389 levels, read-out: mTROC1 IC50
T1 construct: endogenous in cells; host or cells: PC-3 cells
Description: mTORC1 inhibition was determined via analysis of phosphorylation levels of Phospho-p70 S6 kinase (p70S6K pT389) and Phospho-S6 Ribosomal Protein (pRPS6 pS240/pS244) with the corresponding AlphaLISA kits (PerkinElmer Alpha SF Ultra™ Multiplex phospho (Thr389)/total p70 S6K Assay Kit (Eu/Tb) and AlphaLISA SF Ultra™ p-Ribosomal Protein S6 (Ser240/244) Assay Kit).
%−activity=100*((Sample−Low control)/(High control−Low control))

[1] = target: FKBP12 ternary complex with FRB (Homo sapiens, UniProt P42345+P62942); assay: SPR assay to characterize ternary complex formation with FKBP12 (FRB injected over compound-saturated FKBP12); assay type: binding; settings: FRB dilutions with 100 nM test compound over immobilized FKBP12
Description: Biotinylated avi-FKBP12 was immobilized on a streptavidin chip (Cytiva Series S SA) using a Biacore 8K or 8k+ (Cytiva). To achieve an immobilization level of 100 RU, 0.3 μg/ml biotinylated avi-FKBP12 were injected for 80 sec at a flow rate of 10 μl/min. Serial dilution of FRB was prepared (12 concentrations, 3-fold dilutions, 0.00011-20 μM) and supplemented with 100 nM of a test compound. A-B-A injection mode was used to ensure saturation immobilized FKBP12 with respective test compound. 100 nM solution of the respective test compound was injected before FRB injection for 120 sec and during dissociation for 420 sec. The FRB dilutions were then injected 120 seconds contact time with increasing concentrations. Rapamycin was used as reference sample. 50 mM HEPES pH 7.5, 150 mM NaCl, 2 mM MgCl2, 1 mM DTT, 0.05% Tween-20, 1% DMSO was used as running buffer at a flow rate of 30 μl/min. The multi-cycle kinetics data were fit to a 1:1 binding model to measure the association rate ka (1/Ms), the dissociation rate kd (1/s) and the affinity Kd (M). In case of fast association and dissociation, steady state affinity analysis following the law of mass action was used to determine the affinity Kd (M).

FKBP12 = FKBP12 (Homo sapiens, UniProt P62942); assay: SPR assay to determine binding affinity to FKBP12 (direct binding); settings: immobilized biotinylated avi-FKBP12, single-cycle kinetics
Description: SPR Assay to Determine Binding Affinity to FKBP12.
Biotinylated avi-FKBP12 was immobilized on a streptavidin chip (Cytiva Series S SA) using a Biacore 8K or 8k+ (Cytiva). […] Test compounds described in Table 11 were diluted in DMSO to 100× working concentration. Each test compound was 100-fold diluted in 50 mM HEPES pH 7.5, 150 mM NaCl, 2 mM MgCl2, 1 mM DTT, 0.05% Tween-20 and a serial dilution prepared (9 concentrations, 3-fold dilutions, 0.08-500 nM). […] The compound dilutions were then injected at 100 uL/min for 120 seconds contact time in sequence with increasing concentrations. Dissociation was monitored for 3600 seconds. 50 mM HEPES pH 7.5, 150 mM NaCl, 2 mM MgCl2, 1 mM DTT, 0.05% Tween-20, 1% DMSO was used as running buffer. The single-cycle kinetics data were fit to a 1:1 binding model to measure the association rate ka (1/Ms), the dissociation rate kd (1/s) and the affinity Kd (M).

Chain of FKBP12 (P62942 whole entry, species assumed): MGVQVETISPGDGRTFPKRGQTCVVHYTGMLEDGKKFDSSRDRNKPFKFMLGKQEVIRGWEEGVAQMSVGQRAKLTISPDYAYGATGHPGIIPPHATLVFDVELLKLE

Row | Structure (SMILES) | pIC50 (mTORC1) | pKd [1] | pKd (FKBP12)
1 | CO[C@@H]1C[C@H](C[C@@H](C)[C@@H]2CC(=O)[C@H](C)/C=C(\C)[C@@H](O)[C@@H](OC)C(=O)[C@H](C)C[C@H](C)/C=C/C=C/C=C(\C)[C@H](OCC3COC3)C[C@@H]3CC[C@@H](C)[C@@](O)(O3)C(=O)C(=O)N3CCCC[C@H]3C(=O)O2)CC[C@H]1OCCO [Compound 75, (1R,9S,12S,15R,16E,18R,19R,21R,23S,24E,26E,28E,30R,32S,35R)-1,18-dihydroxy-12-[(1R)-2-[(1S,3R,4R)-4-(2-hydroxyethoxy)-3-methoxy-cyclohexyl]-1-methyl-ethyl]-19-methoxy-15,17,21,23,29,35-hexamethyl-30-(oxetan-3-ylmethoxy)-11,36-dioxa-4-azatricyclo[30.3.1.04,9]hexatriaconta-16,24,26,28-tetraene-2,3,10,14,20-pentone] | < 8.82 | < 5.96 | 9.00 to 9.52
2 | CO[C@@H]1C[C@H](C[C@@H](C)[C@@H]2CC(=O)[C@H](C)/C=C(\C)[C@@H](O)[C@@H](OC)C(=O)[C@H](C)C[C@H](C)/C=C/C=C/C=C(\C)[C@@H](OC3CC3)C[C@@H]3CC[C@@H](C)[C@@](O)(O3)C(=O)C(=O)N3CCCC[C@H]3C(=O)O2)CC[C@H]1O [Compound 120, (1R,9S,12S,15R,16E,18R,19R,21R,23S,24E,26E,28E,30S,32S,35R)-30-(cyclopropoxy)-1,18-dihydroxy-12-[(1R)-2-[(1S,3R,4R)-4-hydroxy-3-methoxy-cyclohexyl]-1-methyl-ethyl]-19-methoxy-15,17,21,23,29,35-hexamethyl-11,36-dioxa-4-azatricyclo[30.3.1.04,9]hexatriaconta-16,24,26,28-tetraene-2,3,10,14,20-pentone] | > 9.10 | > 6.30 | 9.00 to 9.52
3 | CO[C@@H]1C[C@H](C[C@@H](C)[C@@H]2CC(=O)[C@H](C)/C=C(\C)[C@@H](O)[C@@H](OC)C(=O)[C@H](C)C[C@H](C)/C=C/C=C/C=C(\C)[C@H](OCCCCO)C[C@@H]3CC[C@@H](C)[C@@](O)(O3)C(=O)C(=O)N3CCCC[C@H]3C(=O)O2)CC[C@H]1OCCCN1CCOCC1 [Compound 27, (1R,9S,12S,15R,16E,18R,19R,21R,23S,24E,26E,28E,30R,32S,35R)-1,18-dihydroxy-30-(4-hydroxybutoxy)-19-methoxy-12-[(1R)-2-[(1S,3R,4R)-3-methoxy-4-(3-morpholinopropoxy)cyclohexyl]-1-methyl-ethyl]-15,17,21,23,29,35-hexamethyl-11,36-dioxa-4-azatricyclo[30.3.1.04,9]hexatriaconta-16,24,26,28-tetraene-2,3,10,14,20-pentone] | 8.82 to 9.10 | 5.96 to 6.30 | > 9.52
4 | CO[C@@H]1C[C@H](C[C@@H](C)[C@@H]2CC(=O)[C@H](C)/C=C(\C)[C@@H](O)[C@@H](OC)C(=O)[C@H](C)C[C@H](C)/C=C/C=C/C=C(\C)[C@@H](OCCc3ccccc3)C[C@@H]3CC[C@@H](C)[C@@](O)(O3)C(=O)C(=O)N3CCCC[C@H]3C(=O)O2)CC[C@H]1O [Compound 520, (1R,9S,12S,15R,16E,18R,19R,21R,23S,24E,26E,28E,30S,32S,35R)-1,18-dihydroxy-12-[(1R)-2-[(1S,3R,4R)-4-hydroxy-3-methoxy-cyclohexyl]-1-methyl-ethyl]-19-methoxy-15,17,21,23,29,35-hexamethyl-30-(2-phenylethoxy)-11,36-dioxa-4-azatricyclo[30.3.1.04,9]hexatriaconta-16,24,26,28-tetraene-2,3,10,14,20-pentone] | > 9.10 | > 6.30 | < 9.00
5 | CO[C@@H]1C[C@H](C[C@@H](C)[C@@H]2CC(=O)[C@H](C)/C=C(\C)[C@@H](O)[C@@H](OC)C(=O)[C@H](C)C[C@H](C)/C=C/C=C/C=C(\C)[C@H](OC3CC3)C[C@@H]3CC[C@@H](C)[C@@](O)(O3)C(=O)C(=O)N3CCCC[C@H]3C(=O)O2)CC[C@H]1O [Compound 519, (1R,9S,12S,15R,16E,18R,19R,21R,23S,24E,26E,28E,30R,32S,35R)-30-(cyclopropoxy)-1,18-dihydroxy-12-[(1R)-2-[(1S,3R,4R)-4-hydroxy-3-methoxy-cyclohexyl]-1-methyl-ethyl]-19-methoxy-15,17,21,23,29,35-hexamethyl-11,36-dioxa-4-azatricyclo[30.3.1.04,9]hexatriaconta-16,24,26,28-tetraene-2,3,10,14,20-pentone] | > 9.10 | > 6.30 | > 9.52
6 | COCCO[C@H]1C[C@@H]2CC[C@@H](C)[C@@](O)(O2)C(=O)C(=O)N2CCCCC2C(=O)O[C@H]([C@H](C)C[C@@H]2CC[C@@H](OCCCN3CCN(C)CC3)[C@H](OC)C2)CC(=O)[C@H](C)/C=C(\C)[C@@H](O)[C@@H](OC)C(=O)[C@H](C)C[C@H](C)/C=C/C=C/C=C/1C (relative stereo) [Compound 431, (1R,9S,12S,15R,16E,18R,19R,21R,23S,24E,26E,28E,30S*,32S,35R)-1,18-dihydroxy-19-methoxy-30-(2-methoxyethoxy)-12-[(1R)-2-[(1S,3R,4R)-3-methoxy-4-[3-(4-methylpiperazin-1-yl)propoxy]cyclohexyl]-1-methyl-ethyl]-15,17,21,23,29,35-hexamethyl-11,36-dioxa-4-azatricyclo[30.3.1.0^4,9]hexatriaconta-16,24,26,28-tetraene-2,3,10,14,20-pentone] | > 9.10 | > 6.30 | 9.00 to 9.52
7 | CO[C@@H]1C[C@H](C[C@@H](C)[C@@H]2CC(=O)[C@H](C)/C=C(\C)[C@@H](O)[C@@H](OC)C(=O)[C@H](C)C[C@H](C)/C=C/C=C/C=C(\C)[C@H](OC3COC3)C[C@@H]3CC[C@@H](C)[C@@](O)(O3)C(=O)C(=O)N3CCCC[C@H]3C(=O)O2)CC[C@H]1O [Compound 124, (1R,9S,12S,15R,16E,18R,19R,21R,23S,24E,26E,28E,30R,32S,35R)-1,18-dihydroxy-12-[(2R)-1-[(1S,3R,4R)-4-hydroxy-3-methoxycyclohexyl]propan-2-yl]-19-methoxy-15,17,21,23,29,35-hexamethyl-30-(oxetan-3-yloxy)-11,36-dioxa-4-azatricyclo[30.3.1.04,9]hexatriaconta-16,24,26,28-tetraene-2,3,10,14,20-pentone] | < 8.82 | < 5.96 | > 9.52
8 | CO[C@@H]1C[C@H](C[C@@H](C)[C@@H]2CC(=O)[C@H](C)/C=C(\C)[C@@H](O)[C@@H](OC)C(=O)[C@H](C)C[C@H](C)/C=C/C=C/C=C(\C)[C@@H](OCCO)C[C@@H]3CC[C@@H](C)[C@@](O)(O3)C(=O)C(=O)N3CCCC[C@H]3C(=O)O2)CC[C@H]1OCCCN1CCOC[C@H]1C [Compound 404, (1R,9S,12S,15R,16E,18R,19R,21R,23S,24E,26E,28E,30S,32S,35R)-1,18-dihydroxy-30-(2-hydroxyethoxy)-19-methoxy-12-[(1R)-2-[(1S,3R,4R)-3-methoxy-4-[3-[(3R)-3-methylmorpholin-4-yl]propoxy]cyclohexyl]-1-methyl-ethyl]-15,17,21,23,29,35-hexamethyl-11,36-dioxa-4-azatricyclo[30.3.1.04,9]hexatriaconta-16,24,26,28-tetraene-2,3,10,14,20-pentone] | > 9.10 | – | > 9.52
9 | CO[C@@H]1C[C@H](C[C@@H](C)[C@@H]2CC(=O)[C@H](C)/C=C(\C)[C@@H](O)[C@@H](OC)C(=O)[C@H](C)C[C@H](C)/C=C/C=C/C=C(\C)[C@@H](OCCO)C[C@@H]3CC[C@@H](C)[C@@](O)(O3)C(=O)C(=O)N3CCCC[C@H]3C(=O)O2)CC[C@H]1OCCCN1CCOC[C@@H]1C [Compound 401, (1R,9S,12S,15R,16E,18R,19R,21R,23S,24E,26E,28E,30S,32S,35R)-1,18-dihydroxy-30-(2-hydroxyethoxy)-19-methoxy-12-[(1R)-2-[(1S,3R,4R)-3-methoxy-4-[3-[(3S)-3-methylmorpholin-4-yl]propoxy]cyclohexyl]-1-methyl-ethyl]-15,17,21,23,29,35-hexamethyl-11,36-dioxa-4-azatricyclo[30.3.1.04,9]hexatriaconta-16,24,26,28-tetraene-2,3,10,14,20-pentone] | – | > 6.30 | –
